Test results as given in article PMC3524419 (ChemMedChem, 2012).

biological target: T1, COX-1 (ovine) (Ovis aries, UniProt P05979); assay: 12-HHT formation from arachidonic acid, HPLC; type: biochemical
T1 sequence (P05979 25-600): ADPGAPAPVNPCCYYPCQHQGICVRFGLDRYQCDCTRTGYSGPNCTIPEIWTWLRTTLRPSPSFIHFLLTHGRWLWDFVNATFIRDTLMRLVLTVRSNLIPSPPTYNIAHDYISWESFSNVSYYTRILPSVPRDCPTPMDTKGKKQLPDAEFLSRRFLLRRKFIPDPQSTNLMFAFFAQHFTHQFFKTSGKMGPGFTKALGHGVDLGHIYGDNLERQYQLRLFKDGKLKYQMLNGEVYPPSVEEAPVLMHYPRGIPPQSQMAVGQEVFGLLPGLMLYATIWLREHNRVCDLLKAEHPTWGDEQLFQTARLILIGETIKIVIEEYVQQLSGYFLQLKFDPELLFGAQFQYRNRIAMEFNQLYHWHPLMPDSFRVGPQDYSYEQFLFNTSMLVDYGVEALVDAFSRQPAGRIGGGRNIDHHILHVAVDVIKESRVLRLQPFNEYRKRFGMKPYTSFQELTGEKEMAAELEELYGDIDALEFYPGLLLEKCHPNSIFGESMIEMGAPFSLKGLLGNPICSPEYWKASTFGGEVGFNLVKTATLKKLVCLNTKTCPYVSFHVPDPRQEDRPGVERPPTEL

IC50, > 30 µM:
CCCCCc1cc(OC(=O)c2c(O)cc(OC)cc2CCCCC)cc(O)c1C(=O)O [compound 8, perlatolic acid]
CCCCCC(=O)Cc1cc(O)cc2c1C(=O)Oc1cc(O)c(C(=O)O)c(CCCCC)c1O2 [compound 2, physodic acid]
CCCCCC(=O)Cc1cc(O)cc(O)c1C(=O)Oc1cc(O)c(C(=O)O)c(CCCCC)c1 [compound 9, olivetoric acid]
